Holding throughout (format): cell-based
For assay [1], the target named is T1, GSPT1 (Homo sapiens, UniProt P15170+Q96SW2). In words: GSPT1 degradation, Western Blot, HCC827 cells, 1 μM, 16 hours. As to conditions: % reduction of GSPT1 compared to DMSO, normalized to GAPDH, read-out: GSPT1 degradation classification. On the procedure: (§1) HCC827 cells were obtained from Korean Cell Line Bank (KCLB) and grown in RPMI supplemented with 10% FBS. The cells were maintained at 37° C. under 5% CO2.
Compounds of the present disclosure was added to cells (final DMSO concentration of 0.1%) and incubated for 16 hours. GSPT1 levels were determined in HCC827 cells using Western Blot analysis. […] Protein levels were normalized to GAPDH levels.
The efficacy of GSPT1 degradation of a part of compounds of the present disclosure was determined by treating HCC827 cells at 1 μM (final DMSO concentration of 0.1%) for 16 hours. GSPT1 levels were determined using Western Blot and normalized to GAPDH levels.

In assay [2] the test system is HCC827 cells. In words: NSCLC cell viability, CellTiter-Glo, HCC827 cells. To be noted: Homo sapiens, HCC827, 72 h, read-out: Cell viability classification. The procedure:
as §1
(§2) The efficacy of the present disclosure to reduce viability of Non-Small Cell Lung Cancer (NSCLC) cells was assessed using CellTiter-Glo Cell Viability Assay (Promega) according to the manufacturer's protocol. […] The luminescence was normalized to that of DMSO-treated samples. IC50 values were obtained using three-parameter non-linear regressions using Prism (GraphPad).
The efficacy of additional compounds of the present disclosure in reducing HCC827 cell viability was determined by treating HCC827 cells at various concentrations (final DMSO concentration of 0.1%). Cell viability was measured using the CellTiter-Glo reagent after 72 hours of treatment.

In assay [3] the test system is A549 cells. In words: NSCLC cell viability, CellTiter-Glo, A549 cells. To be noted: Homo sapiens, 72 hours of treatment, read-out: Cell viability classification. The procedure: A549 cells were obtained from Korean Cell Line Bank (KCLB) and grown in RPMI supplemented with 10% FBS. The cells were maintained at 37° C. under 5% CO2.
as §2
The efficacy of additional compounds of the present disclosure in reducing A549 cell viability was determined by treating A549 cells at various concentrations (final DMSO concentration of 0.1%). Cell viability was measured using the CellTiter-Glo reagent after 72 hours of treatment.

Assay [4] concerns the target T1, GSPT1. In words: GSPT1 degradation, Western Blot, A549 cells, 1 μM, 16 hours. As to conditions: % reduction of GSPT1 compared to DMSO, normalized to GAPDH, read-out: GSPT1 degradation classification.
Method: Compounds of the present disclosure was added to cells (final DMSO concentration of 0.1%) and incubated for 16 hours. GSPT1 levels were determined in A549 cells using Western Blot analysis. […] Protein levels were normalized to GAPDH levels.
The efficacy of GSPT1 degradation of a part of compounds of the present disclosure was determined by treating A549 cells at 1 μM (final DMSO concentration of 0.1%) for 16 hours. GSPT1 levels were determined using Western Blot and normalized to GAPDH levels.

T1 sequence (P15170 whole entry): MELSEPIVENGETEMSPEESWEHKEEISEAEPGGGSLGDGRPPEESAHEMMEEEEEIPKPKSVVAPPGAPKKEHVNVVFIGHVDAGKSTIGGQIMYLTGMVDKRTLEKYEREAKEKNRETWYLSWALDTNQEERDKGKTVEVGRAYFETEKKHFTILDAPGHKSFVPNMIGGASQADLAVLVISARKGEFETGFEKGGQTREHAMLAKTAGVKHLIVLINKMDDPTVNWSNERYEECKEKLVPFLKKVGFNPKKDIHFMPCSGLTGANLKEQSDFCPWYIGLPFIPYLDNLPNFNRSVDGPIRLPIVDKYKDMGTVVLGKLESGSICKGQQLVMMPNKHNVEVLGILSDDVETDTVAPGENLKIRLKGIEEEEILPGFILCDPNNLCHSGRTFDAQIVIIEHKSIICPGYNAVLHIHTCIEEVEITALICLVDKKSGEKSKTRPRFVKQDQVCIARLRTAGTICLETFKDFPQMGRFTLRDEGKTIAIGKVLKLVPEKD
T1 sequence (Q96SW2 whole entry): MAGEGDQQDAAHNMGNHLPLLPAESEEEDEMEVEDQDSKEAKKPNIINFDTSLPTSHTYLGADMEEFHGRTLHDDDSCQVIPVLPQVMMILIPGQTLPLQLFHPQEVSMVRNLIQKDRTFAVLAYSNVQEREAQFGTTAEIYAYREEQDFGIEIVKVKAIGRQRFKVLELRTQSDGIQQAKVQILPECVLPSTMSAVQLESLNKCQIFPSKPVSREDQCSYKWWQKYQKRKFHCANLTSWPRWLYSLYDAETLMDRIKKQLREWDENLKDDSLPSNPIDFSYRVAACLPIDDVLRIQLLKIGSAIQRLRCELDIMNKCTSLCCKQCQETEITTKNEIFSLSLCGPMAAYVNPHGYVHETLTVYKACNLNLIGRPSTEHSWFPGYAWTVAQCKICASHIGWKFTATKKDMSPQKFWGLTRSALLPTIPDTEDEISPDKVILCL
T1 sequence (Q16531 whole entry partner): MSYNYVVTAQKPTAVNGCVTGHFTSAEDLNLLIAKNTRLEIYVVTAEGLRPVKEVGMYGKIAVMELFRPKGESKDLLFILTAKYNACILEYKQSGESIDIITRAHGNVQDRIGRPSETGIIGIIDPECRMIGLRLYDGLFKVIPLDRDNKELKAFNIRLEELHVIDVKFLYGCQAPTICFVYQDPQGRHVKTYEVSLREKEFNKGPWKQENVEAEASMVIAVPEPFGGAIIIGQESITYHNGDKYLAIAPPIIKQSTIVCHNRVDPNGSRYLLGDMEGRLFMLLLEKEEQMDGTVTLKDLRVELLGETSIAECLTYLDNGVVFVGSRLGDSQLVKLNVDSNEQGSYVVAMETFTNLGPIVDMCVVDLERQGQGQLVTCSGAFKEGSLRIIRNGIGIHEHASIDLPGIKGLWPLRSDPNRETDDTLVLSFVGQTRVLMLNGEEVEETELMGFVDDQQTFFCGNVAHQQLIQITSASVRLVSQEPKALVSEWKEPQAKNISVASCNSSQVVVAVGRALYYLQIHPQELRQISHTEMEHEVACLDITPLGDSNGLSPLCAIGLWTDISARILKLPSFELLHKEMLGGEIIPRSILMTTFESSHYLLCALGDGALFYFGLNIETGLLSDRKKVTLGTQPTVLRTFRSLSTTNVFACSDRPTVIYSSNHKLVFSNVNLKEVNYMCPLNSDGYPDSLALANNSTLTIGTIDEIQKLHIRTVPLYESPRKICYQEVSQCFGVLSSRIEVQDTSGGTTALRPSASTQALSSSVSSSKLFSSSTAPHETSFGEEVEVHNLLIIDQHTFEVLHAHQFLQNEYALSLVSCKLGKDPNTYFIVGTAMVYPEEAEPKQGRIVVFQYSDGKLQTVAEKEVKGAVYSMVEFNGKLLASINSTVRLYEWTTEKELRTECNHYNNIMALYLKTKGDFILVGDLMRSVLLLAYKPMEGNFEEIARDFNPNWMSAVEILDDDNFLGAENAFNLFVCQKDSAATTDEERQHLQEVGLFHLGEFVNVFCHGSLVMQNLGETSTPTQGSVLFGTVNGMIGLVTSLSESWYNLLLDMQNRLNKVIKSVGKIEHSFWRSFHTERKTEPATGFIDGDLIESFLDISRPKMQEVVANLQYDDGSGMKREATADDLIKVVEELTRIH

Consider `O=C1CCC(N2Cc3cc(C(=O)N4Cc5ccc(F)cc5C4)ccc3C2=O)C(=O)N1` (stereo not drawn) [Example 88, 3-(5-(5-fluoroisoindoline-2-carbonyl)-1-oxoisoindolin-2-yl)piperidine-2,6-dione], for which the inhibition at 1 µM in assay [1] was above 75%. Also, in assay [2], the IC50 was below 1000 nM.
Take `O=C1CCC(N2Cc3cc(C(=O)Nc4csc5ccccc45)c(F)cc3C2=O)C(=O)N1` (stereo not drawn) [Example 91, N-(benzo[b]thiophen-3-yl)-2-(2,6-dioxopiperidin-3-yl)-6-fluoro-1-oxoisoindoline-5-carboxamide]: in assay [3], the IC50 was below 1000 nM. In assay [4], the inhibition at 1 µM is above 75%.
Taken in the same sequence, the figures for `O=C1CCC(N2Cc3cc(C(=O)NC4CCCCC4)ccc3C2=O)C(=O)N1` (stereo not drawn) [Example 96, N-cyclohexyl-2-(2,6-dioxopiperidin-3-yl)-1-oxoisoindoline-5-carboxamide] were 1000 to 30000 nM and 50 to 75%.

These data come from patent US20260285872A1, “COMPOUNDS AND METHODS FOR DEGRADING GSPT1” (priority 2023, published 2026).
